Where two headings read alike, the source gives them in different places.
Key:
[1] = biological target: T1, human β3 adrenergic receptor (Homo sapiens, UniProt P13945); test: Functional assay: cAMP production in CHO cells transfected with cloned β-adrenergic receptor; type: cell-based
T1 construct: expressed in transfected cells; host or cells: Chinese hamster ovary (CHO) cells, stably transfected
Method: Biological Assays for β3 Functional Activities: The following in vitro assays are suitable for screening compounds that have selective β3 agonist activity:
Functional Assay: cAMP production in response to ligand is measured according to Barton, et al. (1991, Agonist-induced desensitization of D2 dopamine receptors in human Y-79 retinoblastoma cells. Mol. Pharmacol. […]) modified as follows. cAMP production is measured using a homogenous time-resolved fluorescence resonance energy transfer immunoassay (LANCE™, Perkin Elmer) according to the manufacture's instructions. Chinese hamster ovary (CHO) cells, stably transfected with the cloned 13-adrenergic receptor (β1, β2 or β3) are harvested after 3 days of subculturing. Harvesting of cells is done with Enzyme-free Dissociation Media (Specialty Media). Cells are then counted and resuspended in assay buffer (Hank's Balanced salt solution supplemented with 5 mM HEPES, 0.1% BSA) containing a phosphodiesterase inhibitor (IBMX, 0.6 mM). The reaction is initiated by mixing 6,000 cells in 6 with 6 μL Alexa Fluor labeled cAMP antibody (LANCE™ kit) which is then added to an assay well containing 12 μL of compound (diluted in assay buffer to 2× final concentration). The reaction proceeds for 30 min at room temperature and is terminated by the addition of 24 detection buffer (LANCE™ kit). The assay plate is then incubated for 1 h at room temperature and time-resolved fluorescence measured on a Perkin Elmer Envision reader or equivalent. The unknown cAMP level is determined by comparing fluorescence levels to a cAMP standard curve.
The non-selective, full agonist 13-adrenergic ligand isoproterenol is used at all three receptors to determine maximal stimulation. The human β3 adrenergic receptor (AR) selective ligand (S)-N-[4-[2-[[2-hydroxy-3-(4-hydroxyphenoxy)propyl]amino]ethyl]-phenyl]-4-iodobenzenesulfonamide is used as a control in all assays. […] Data are analyzed using Microsoft Excel and Graphpad Prism or an internally developed data analysis software package.

bladder capacity = test: Bladder capacity (cystometry) in anesthetized rhesus monkeys; type: in vivo, rhesus monkeys (Macaca mulatta); conditions: mean of 4-6 animals
From the text: Adult female rhesus monkeys (Macaca mulatta) weighed 5.3-6.2 kg (4-7 year-old) were used. The subjects were either paired or individually housed on a 12-h light/12-h dark cycle (lights on at 7:00 AM). Their diet consisted of 2050 Teklad (Harlan Laboratories, Indianapolis, Ind.) and fresh fruit or vegetable. Water was freely available. All animals were observed daily by a veterinary technician and caretakers for signs of ill health. Subjects were repeatedly used with >13-day resting period. Monkeys were anesthetized with an intramuscular injection of either Telazol (3-5 mg/kg) or ketamine (10-20 mg/kg) followed by intravenous constant rate infusion with ketamine (0.2-0,8 mg/kg/min) using a syringe pump (552222, Harvard Apparatus, Holliston, Mass.). Animals were placed in a supine position and a triple lumen balloon transurethral catheter (7.4 Fr, Cook Medical, Bloomington, Ind.) was inserted into the bladder and the balloon was inflated with 1 mL of water to secure the tip of catheter at the bladder base. The catheter was connected with an infusion pump (Gemini PC-2TX, ALARIS Medical Systems, San Diego, Calif.) for bladder filling and a pressure transducer for intravesical pressure monitoring. Intravesical pressure was continuously recorded using a multiple channel data acquisition system (Power lab, AD Instruments, Biopac systems, Colorado Springs, Colo.) at a sampling rate of 20 Hz. After confirming bladder emptiness by an ultrasonography (Logiq e vet, GE Medical Systems, Waukesha, Wis., FIG. 1A), saline was intravesically infused at 15 mL/min. When the steep rise in pressure indicative of the micturition reflex was observed, intravesical infusion was stopped and the bladder was manually emptied with a 60 ml syringe.
After two baseline cystometry readings, drug was intravenously administered three times using a rising dose paradigm with a cystometry performed 10 min after each dose. Bladder capacity was measured for each cystometry and % change from the baseline capacity was calculated. As used herein, the term “baseline capacity” or “baseline” means the average bladder capacity from two pre-dose measurements.
The reported results are mean values of % change from baseline in 4-6 animals.

muscarinic receptor M4 = biological target: T2, muscarinic receptor M4 (Homo sapiens, UniProt P08173); conditions: Ohtake et al.; cited from earlier work
T2 sequence (P08173 1-479): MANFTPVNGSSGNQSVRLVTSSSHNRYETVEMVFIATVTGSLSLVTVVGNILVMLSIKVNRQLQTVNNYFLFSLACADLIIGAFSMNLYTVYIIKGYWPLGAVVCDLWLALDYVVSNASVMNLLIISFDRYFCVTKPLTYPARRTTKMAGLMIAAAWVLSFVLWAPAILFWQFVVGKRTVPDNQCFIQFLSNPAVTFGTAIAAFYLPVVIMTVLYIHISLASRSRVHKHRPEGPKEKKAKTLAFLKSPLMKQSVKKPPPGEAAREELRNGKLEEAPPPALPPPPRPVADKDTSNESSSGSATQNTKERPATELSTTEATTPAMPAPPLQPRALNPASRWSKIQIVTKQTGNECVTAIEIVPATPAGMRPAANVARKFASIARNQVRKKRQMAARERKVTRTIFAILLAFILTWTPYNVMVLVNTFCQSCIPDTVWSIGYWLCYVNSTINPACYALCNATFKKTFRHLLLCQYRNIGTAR

[2] = tested on: EFS-induced isolated detrusor muscle contractions; test: EFS-induced contraction of isolated rat detrusor muscle strips, with isobologram analysis; set-up: species or system Sprague-Dawley rats
Method: Male adult Sprague-Dawley rats were used. After euthanizing using CO2 gas, a whole bladder was removed. Longitudinal strips (about 6 mm×3 mm) of the extratrigonal portion of the detrusor muscle were prepared. […] The strips were tied at one end to the organ bath, and connected at the other end to an isometric transducer (AD Instruments) under a resting tension of 10 mN. The responses of the preparations were recorded at a sampling rate of 10 Hz by a multiple channel data acquisition system (PowerLab, AD Instruments), and measured with an analysis software (Chart, AD Instruments). After the equilibration period for at least 60 min, each tissue strip was challenged to electrical field stimulation (EFS) at 60 Hz; duration, 0.3 ms; 3 sec; 90 V to induce contractions. Upon obtaining stable contractions with EFS, compound solution (25 μL) was applied into organ bath in a cumulative manner. After 15 min of each compound treatment, EFS was applied.
Isobologram Analysis was used to evaluate the synergic effect of a combination therapy. Isobologram Analysis provides a visual assessment of the interaction of two different agents using independent statistical analysis. The statistical analysis can be accomplished from calculations of certain potency indices from single treatment of each compound and fixed-ratio combinations for the same effect.
Isobologram for some particular effect (e.g., 50% of the maximum) in which the dose of active agent A alone is A=20 and active agent B alone is B=100. The straight line connecting these intercept points (additivity line) is the locus of all dose pairs that, based on these potencies, should give the same effect, An actual dose pair such as point Q attains this effect with lesser quantities and is synergistic (or super-additive), while the dose pair denoted by point R means greater quantities are required and is therefore sub-additive.

[3] = cAMP, CHO cells, read-out: human β3 functional activity
[4] = human β3 functional activity, read-out: HUMAN β3 BINDING

T1 sequence (P13945 whole entry): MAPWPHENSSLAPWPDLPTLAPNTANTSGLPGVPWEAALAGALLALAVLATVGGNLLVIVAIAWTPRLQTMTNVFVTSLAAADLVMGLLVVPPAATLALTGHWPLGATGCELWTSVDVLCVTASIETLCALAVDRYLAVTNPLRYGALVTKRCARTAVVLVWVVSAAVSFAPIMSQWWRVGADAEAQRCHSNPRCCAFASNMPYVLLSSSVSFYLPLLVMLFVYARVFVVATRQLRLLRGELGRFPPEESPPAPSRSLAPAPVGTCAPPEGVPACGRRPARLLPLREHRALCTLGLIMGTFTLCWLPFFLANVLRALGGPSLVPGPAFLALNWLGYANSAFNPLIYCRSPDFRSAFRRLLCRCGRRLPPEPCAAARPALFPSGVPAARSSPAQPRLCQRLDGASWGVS

Compound | EC50 [1, 3] | EC50 [1, 4] | other results
Cc1ncn(C(C)C(=O)Nc2ccc(C[C@@H]3CC[C@H]([C@H](O)c4ccccc4)N3)cc2)n1 (stereo partly drawn) [Compound 11] | 1 to 10 nM | – | –
NC(=O)C(c1ccccc1)(c1ccccc1)[C@@H]1CCN(CCc2ccc3c(c2)CCO3)C1 [Darifenacin, (S)-2-[1-[2-(2,3-dihydrobenzofuran-5-yl)ethyl]pyrrolidin-3-yl]-2,2-diphenyl-acetamide] | – | – | Bladder capacity, % change from baseline (bladder capacity; mono-therapy 0.01 mg/kg iv): 8.9%; Bladder capacity, % change from baseline (bladder capacity; mono-therapy 0.03 mg/kg iv): 18.3%; Bladder capacity, % change from baseline (bladder capacity; mono-therapy 0.1 mg/kg iv): 29.4%; Ki (muscarinic receptor M4): 52 ± 15 nM
O=C(Cn1cnccc1=O)Nc1ccc(C[C@@H]2CC[C@H]([C@H](O)c3ccccc3)N2)cc1 [Compound 9] | – | 1 to 10 nM | –
Cc1cnn(CC(=O)Nc2ccc(C[C@@H]3CC[C@H]([C@H](O)c4ccccc4)N3)cc2)c(=O)c1 [Compound 6] | – | 1 to 10 nM | –
O=C(Cn1cccnc1=O)Nc1ccc(C[C@@H]2CC[C@H]([C@H](O)c3ccccc3)N2)cc1 [Compound 8] | – | 1 to 10 nM | –
O=C(Cn1cnc2ccccc2c1=O)Nc1ccc(C[C@@H]2CC[C@H]([C@H](O)c3ccccc3)N2)cc1 [Compound 4] | – | 1 to 10 nM | –
O=C(Cn1ccccc1=O)Nc1ccc(C[C@@H]2CC[C@H]([C@H](O)c3ccccc3)N2)cc1 [Compound 10] | – | 1 to 10 nM | –
O=C(Nc1ccc(C[C@@H]2CC[C@H]([C@H](O)c3ccccc3)N2)cc1)[C@H]1CCc2cccc(=O)n21 [Compound 13, (3R)-N-[4-({(2S,5R)-5-[(R)-hydroxy(phenyl)methyl]pyrrolidin-2-yl}methyl)phenyl]-5-oxo-1,2,3,5-tetrahydroindolizine-3-carboxamide] | < 1 nM | – | –
O=C(Nc1ccc(C[C@@H]2CC[C@H]([C@H](O)c3ccccc3)N2)cc1)[C@@H]1CCc2nccc(=O)n21 [Compound 14, (6S)-N-[4-({(2S, 5R)-5-[(R)-hydroxy(phenyl)methyl]pyrrolidin-2-yl}methyl)phenyl]-4-oxo-4,6,7,8-tetrahydropyrrolo[1,2-α]pyrimidine-6-carboxamide] | 11 to 100 nM | – | Bladder capacity, % change from baseline (bladder capacity; mono-therapy 0.003 mg/kg iv): 4.1%; Bladder capacity, % change from baseline (bladder capacity; mono-therapy 0.003 mg/kg iv, listed as Cpd 14): 4.1%; Bladder capacity, % change from baseline (bladder capacity; mono-therapy 0.01 mg/kg iv): 18.0%; Bladder capacity, % change from baseline (bladder capacity; mono-therapy 0.03 mg/kg iv): 27.3%; Bladder capacity, % change from baseline (bladder capacity; mono-therapy 0.1 mg/kg iv): 33.9%; Bladder capacity, % change from baseline (bladder capacity; mono-therapy 0.3 mg/kg iv): 31%; Bladder capacity, % change from baseline (bladder capacity; mono-therapy 1 mg/kg iv): 55.9%
Nc1nc2c(s1)CCC2C(=O)Nc1ccc(C[C@@H]2CC[C@H]([C@H](O)c3ccccc3)N2)cc1 (stereo partly drawn) [Compound 3] | < 1 nM | – | –
O=C(Nc1ccc(C[C@@H]2CC[C@H]([C@H](O)c3ccccc3)N2)cc1)[C@@H]1CCc2cccc(=O)n21 [Compound 12, (3S)-N-[4-({(2S,5R)-5-[(R)-hydroxy(phenyl)methyl]pyrrolidin-2-yl}methyl)phenyl]-5-oxo-1,2,3,5-tetrahydroindolizine-3-carboxamide] | 1 to 10 nM | – | times less potent than CL316243 (IC25) ([2]; inhibiting EFS-induced contraction of rat bladder strips): ~100 times; IC25 (concentration which induced 25% inhibition of detrusor contraction) ([2]; single compound, rat bladder strips, EFS): 275 nM
Nc1nc(CC(=O)Nc2ccc(CC3CC[C@H]([C@H](O)c4ccccc4)N3)cc2)cs1 (stereo partly drawn) [Compound 1, 2-(2-Amino-1,3-thiazol-4-yl)-N-[4-({(5R)-[(R)-hydroxy(phenyl)methyl]pyrrolidinyl}methyl)phenyl]acetamide] | 1 to 10 nM | – | –
O=C(Cn1ncccc1=O)Nc1ccc(C[C@@H]2CC[C@H]([C@H](O)c3ccccc3)N2)cc1 [Compound 5] | – | 1 to 10 nM | –
O=C(Cn1ncc2ccccc2c1=O)Nc1ccc(C[C@@H]2CC[C@H]([C@H](O)c3ccccc3)N2)cc1 [Compound 7] | – | 1 to 10 nM | –
Nc1nc(CC(=O)Nc2ccc(C[C@@H]3CC[C@H]([C@H](O)c4ccccc4)N3)cc2)cs1 [Compound 2, 2-(2-Amino-1,3-thiazol-4-yl)-N-[4-({(2S, 5R)-[(R)-hydroxy(phenyl)methyl]pyrrolidinyl}methyl)phenyl]acetamide] | 1 to 10 nM | – | –
